Measurements as given in patent US20080146555A1, “Uses of Kinase Inhibitors and Compositions Thereof” (GPC Biotech, Inc, priority 2004, published 2008).
Several values for one entry are separate records, joined by “and”; a condition that tells them apart may be missing. Identical values can stand only once. Counter-ions that a name gives are not always drawn. Like-named read-outs stand apart in the source and are kept apart here.

Tests used:
[1] = target: T1, JNK2α2 (Homo sapiens, UniProt P45984); experiment: JNK2α2 kinase assay; format: biochemical
T1 construct: purchased Upstate 14-329
T1 sequence (P45984 whole entry): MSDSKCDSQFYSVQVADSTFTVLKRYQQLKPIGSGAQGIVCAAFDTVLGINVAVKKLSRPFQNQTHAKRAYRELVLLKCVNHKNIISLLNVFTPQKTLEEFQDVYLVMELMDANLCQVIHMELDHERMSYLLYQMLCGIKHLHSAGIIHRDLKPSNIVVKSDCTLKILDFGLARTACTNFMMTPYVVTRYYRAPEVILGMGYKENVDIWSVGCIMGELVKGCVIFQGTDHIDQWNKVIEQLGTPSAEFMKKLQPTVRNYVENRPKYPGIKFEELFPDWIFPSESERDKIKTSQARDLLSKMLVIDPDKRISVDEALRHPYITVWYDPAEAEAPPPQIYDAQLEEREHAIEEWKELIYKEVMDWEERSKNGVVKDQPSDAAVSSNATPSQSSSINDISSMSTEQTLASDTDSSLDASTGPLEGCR
Method: • 1. 10× Reaction Buffer: 500 mM Tris-HCl, pH 7.5, 1 mM EGTA, 1% 2-mercaptoethanol. • 2. ATF2 (amino acids 19-69) (Catalog #12-367): Prepare a 30 μM stock. Use 2.5 μl per assay point for a final concentration of 3 μM per assay. • 3. JNK2α2/SAPK1a, active: Dilute to 4-40 ng/μl with 1× Reaction Buffer containing 0.03% Brij-35. Use 2.5 μl per assay point. • 4. […] [γ-^32P]ATP: Stock 1 mCi/100 μl (3000 Ci/mmol, obtained from PerkinElmer, Catalog #BLU002A). Make 10 μl aliquots (100 μCi/vial). Before starting the assay, dilute the Magnesium/ATP Cocktail 1:1 with sterile, distilled water. Then dilute an aliquot of [γ-^32P]ATP to 1 μCi/μl with 90 μl of the diluted Magnesium/ATP Cocktail. […]
• 1. Add 2.5 μl of 10× Reaction Buffer to a microcentrifuge tube. • 2. Add 2.5 μl […] of ATF2 (amino acids 19-69). • 3. Add 2.5 μl (10-100 ng) of JNK2α2/SAPK1a, active. • 4. Add 7.5 μl of sterile, distilled water. • 5. Add 10 μl of the diluted [γ-^32P]ATP solution. • 6. Incubate with agitation for 10 minutes at 30° C. • 7. Transfer a 20 μl aliquot onto the center of a 2 cm×2 cm P81 paper square (Catalog #20-134). • 8. Wash the paper squares three times with 0.75% phosphoric acid for 5 minutes. • 9. Wash the paper squares once for 5 minutes with acetone. • 10. Transfer the paper squares to a scintillation vial and add 5 ml scintillation cocktail. • 11. Read in scintillation counter. Compare the cpm of enzyme samples to the cpm of control samples that contain no enzyme (background control).

[2] = target: T2, c-Src (Homo sapiens, UniProt P12931); experiment: c-Src kinase assay; format: biochemical
T2 construct: purchased Upstate 14-326
T2 sequence (P12931 whole entry): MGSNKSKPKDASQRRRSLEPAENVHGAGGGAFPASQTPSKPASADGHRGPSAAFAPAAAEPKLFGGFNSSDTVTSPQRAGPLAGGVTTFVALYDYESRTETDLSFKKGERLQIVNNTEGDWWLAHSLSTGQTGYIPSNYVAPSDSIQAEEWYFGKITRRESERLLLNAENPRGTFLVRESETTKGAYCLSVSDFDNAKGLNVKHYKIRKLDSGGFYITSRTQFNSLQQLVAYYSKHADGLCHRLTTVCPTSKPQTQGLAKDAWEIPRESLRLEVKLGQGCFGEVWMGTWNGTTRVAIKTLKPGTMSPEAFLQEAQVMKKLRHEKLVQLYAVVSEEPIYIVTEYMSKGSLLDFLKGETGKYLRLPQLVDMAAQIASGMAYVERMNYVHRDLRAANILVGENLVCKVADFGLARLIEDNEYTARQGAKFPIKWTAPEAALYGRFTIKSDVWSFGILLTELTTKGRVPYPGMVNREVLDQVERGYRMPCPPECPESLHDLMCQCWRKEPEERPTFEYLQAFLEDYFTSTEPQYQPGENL
Method: • 1. Src Kinase Reaction Buffer (SrcRB), Catalog #20-121: 100 mM Tris-HCl, pH 7.2, 125 mM MgCl2, 25 mM MnCl2, 2 mM EGTA, 0.25 mM sodium ortovanadate, 2 mM dithiothreitol. • 2. [γ-^32P]ATP: Stock 1 mCi/100 μl (3000 Ci/mmol, obtained from DuPont-NEN). Make 10 μl aliquots (100 μCi/vial). Before starting the assay dilute an aliquot to 1 μCi/μl with 90 μl of 500 μM unlabeled ATP containing 75 mM MnCl2 20 mM MOPS, pH 7.2, 25 mM β-glycerophosphate, 5 mM EGTA, 1 mM Na3VO4, 1 mM dithiothreitol. • 3. Src Kinase Substrate Peptide (Catalog #12-140): Use a 0.6-1.5 mM stock. Rehydrate 1 mg peptide with […] distilled water or SrcRB for a 1.5 mM stock or with 998 μl for a 0.6 mM stock. • 4. Src, active: Use 20-80 Units per assay point. Dilute as required with SrcRB.
• 1. Add 10 μl of SrcRB into a microfage tube. • 2. Add 10 μl Src Kinase substrate peptide (93-375 μM/assay). • 3. Add 4-16 μl of Src, active (20-80 Units/assay). • 4. Add 10 μl of the diluted [γ-^32P]ATP. • 5. Incubate for 10 minutes at 30° C. • 6. Add 20 μl of 40% TCA and incubate for 5 minutes at room temperature. • 7. Transfer 25 μl to the center of a 2 cm×2 cm P81 paper square. • 8. Wash the assay squares five times for 5 minutes each with 0.75% phosphoric acid. • 9. Wash the assay squares once with acetone for 5 minutes. • 10. Transfer the assay squares to a scintillation vial and add 5 ml scintillation cocktail. • 11. Read in scintillation counter. Compare cpm of enzyme samples to cpm of control samples that contain no enzyme (background control).

[3] = tested on: A129; experiment: SRB cytotoxicity, A129 parental cells; format: cell-based, human; conditions: Homo sapiens, 72 h
Method: In these experiments, the P-glycoprotein expressing NCI-Adr resistant subline (Vickers et al., 1989. Mol Endocrinology 3 (1):157-164) was used. […] Briefly, cells were plated in 96 well dishes 24 hours prior to compound addition. Where noted, they were exposed to verapamil for 4 hours prior to compound addition and then throughout the treatment period (72 hours). The assay was terminated with the addition of cold TCA to a final concentration of 10% and the plates were incubated for one hour at 4° C. The plates were then washed 5 times with water and 100 μl of a Sulforhodamine B solution (4%) was added to each well. The plate was then incubated for 10 minutes at room temperature before removal of unbound dye by washing with 1% acetic acid.
The parental non-mutated cell line A129 was used as a control.

[4] = target: T3, CDKs; experiment: Kinase panel, CDKs (average/range); format: biochemical
T3 construct: IC50 range over CDK1-7; other: 6 CDKs / CDK1-7; Cdk2/his-cyclin Eshort was expressed in Sf9 cells; Cdk2/cyclin A, cdk4/cyclin D1, and cdk6/cyclin D2 were expressed in Sf9 cells

[5] = kinase panel, 10 μM ATP, read-out: JNK2α2 IC50
[6] = read-out: MAPK9 Inhibition (IC50)
[7] = read-out: SRC Inhibition (IC50)
[8] = 6 CDKs / CDK1-7, read-out: average IC50 for CDKs

| Compound | IC50 [1, 5] [nM] | IC50 [1, 6] [nM] | IC50 ([2]; kinase panel, 10 μM ATP, read-out: c-Src IC50) [nM] | IC50 [2, 7] [nM] | IC50 [3] [nM] | IC50 [4, 8] | IC50 ([4]; read-out: IC50 range over CDK1-7) [nM] |
| --- | --- | --- | --- | --- | --- | --- | --- |
| COCCN1CCN(Cc2ccc(-c3n[nH]c4c3C(=O)c3c(NC(=O)NN5CCOCC5)cccc3-4)cc2)CC1 [Compound B16, N-[3-(4-{[4-(2-methoxyethyl)piperazinyl]methyl}phenyl)-4-oxoindeno[2,3-d]pyrazol-5-yl](morpholin-4-ylamino)carboxamide dihydrochloride] | < 100 | < 100 | < 100 | < 50 | 8.7 | ~17 nM |  |
| CC(C)N1CCN(C(=O)COc2ccc(-c3n[nH]c4c3C(=O)c3c(NC(=O)NN5CCOCC5)cccc3-4)cc2)CC1 [Compound A37] | 10 to 100 | < 50 |  | < 50 | 5.7 | ~42 nM and 42 nM | 3 to 155 |
